Two molecules from ChEMBL document CHEMBL1811820, “Vicenin-2, a potential anti-inflammatory constituent of Urtica circularis” (J Nat Prod, 2011) can be followed below.

Calls of active or inactive are those of the source. The rule behind the calls is not given here.

Series [1] concerns Rattus norvegicus. Description: Antiinflammatory activity against Sprague-Dawley rat assessed as inhibition of carrageenan-induced paw edema at 10 mg/kg, ip administered 30 mins prior to carrageenan challenge measured after 5 hrs. It counts as functional. The following applies: route intraperitoneal. For orientation: In the carrageenan paw model, swelling and tenderness develop within hours.

For series [2], the system named is Mus musculus. The experiment in a line: Antiinflammatory activity against Swiss mouse assessed as inhibition of 12-O-tetradecanoylphorbol acetate-induced ear edema at 1 mg/ear, topically administered measured after 4 hrs of 12-O-tetradecanoylphorbol acetate-challenge. It counts as functional.
The nature of series [3]: Antiinflammatory activity in mouse peritoneal macrophage assessed as increase in LPS-stimulated TNFalpha release at 100 to 1000 ug/mL after 24 hrs by ELISA relative to control in presence of LPS. Type of series: functional, Peritoneal macrophage cell. On the technique in general: In an ELISA, binding on a coated surface is turned into a signal by an enzyme label.
A short description of series [4]: Pro-inflammatory activity in mouse peritoneal macrophage assessed as increased NO production at 1000 ug/mL after 10 mins using Griess reagent by spectrophotometry in presence of LPS. Type of series: ADME, cell-based. The following applies: peritoneal macrophage cell.
A short description of series [5]: Antiinflammatory activity in mouse peritoneal macrophage assessed as decreased LPS-stimulated NO production at 10 to 500 ug/mL after 10 mins using Griess reagent by spectrophotometry. Type of series: functional, Peritoneal macrophage cell. For orientation: Nitrite, measured by Griess reagent, commonly stands in for NO production.
A short description of series [6]: Antiinflammatory activity in mouse peritoneal macrophage assessed as decreased LPS-stimulated NO production at 0.01 to 1 ug/mL after 10 mins using Griess reagent by spectrophotometry. It counts as functional, Peritoneal macrophage cell.
Series [7] deals with Transcription factor p65 (Mus musculus) (UniProt Q04207). Description: Inhibition of NF-kappaB p65 nuclear translocation in LPS-stimulated mouse peritoneal macrophage at 0.01 to 10 ug/mL after 24 hrs by nuclear absorbance assay.
Transcription factor p65 (Mus musculus), sequence (Q04207 whole entry): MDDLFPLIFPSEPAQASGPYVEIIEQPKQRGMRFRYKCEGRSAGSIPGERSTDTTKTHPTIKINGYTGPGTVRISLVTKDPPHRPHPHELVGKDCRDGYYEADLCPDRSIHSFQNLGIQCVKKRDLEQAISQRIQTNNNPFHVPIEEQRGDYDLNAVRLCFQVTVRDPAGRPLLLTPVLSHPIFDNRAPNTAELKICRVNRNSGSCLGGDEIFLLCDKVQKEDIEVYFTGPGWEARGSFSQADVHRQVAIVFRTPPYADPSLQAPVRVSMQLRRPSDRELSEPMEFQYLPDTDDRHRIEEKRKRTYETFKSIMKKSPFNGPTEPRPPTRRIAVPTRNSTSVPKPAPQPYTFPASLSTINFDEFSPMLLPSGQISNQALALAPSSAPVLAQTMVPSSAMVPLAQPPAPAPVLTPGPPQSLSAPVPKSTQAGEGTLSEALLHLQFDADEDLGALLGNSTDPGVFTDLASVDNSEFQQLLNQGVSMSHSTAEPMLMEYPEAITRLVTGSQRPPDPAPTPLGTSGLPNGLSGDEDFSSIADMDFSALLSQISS
The target is the same in series [8]. The experiment in a line: Increase in NF-kappaB p65 nuclear translocation in LPS-stimulated mouse peritoneal macrophage at 1000 ug/mL after 24 hrs by nuclear absorbance assay.
The test system of series [9] is Peritoneal macrophage cell. The experiment in a line: Antiinflammatory activity in mouse peritoneal macrophage assessed as decrease in LPS-stimulated TNFalpha release at 0.01 to 10 ug/mL after 24 hrs by ELISA relative to control in presence of LPS. Type of series: functional, cell-based.
In series [10] the target is Transcription factor p65 (Mus musculus) (UniProt Q04207). Description: Inhibition of NF-kappaB p65 nuclear translocation in LPS-stimulated mouse peritoneal macrophage at 10 to 500 ug/mL after 24 hrs by nuclear absorbance assay.

Turning to `COc1ccc2c(c1)c(CC(=O)O)c(C)n2C(=O)c1ccc(Cl)cc1` [INDOMETHACIN], the inhibition in vivo at 10 mg/kg in [1] worked out at 38.4%. The “inhibition (INH)” value in series [2] is 87.3%.
For the molecule `O=c1cc(-c2ccc(O)cc2)oc2c([C@@H]3O[C@H](CO)[C@@H](O)[C@H](O)[C@H]3O)c(O)c([C@@H]3O[C@H](CO)[C@@H](O)[C@H](O)[C@H]3O)c(O)c12`, the Activity in [3] was 62%; in series [4], “Toxic”. For the same molecule, the “inhibition (INH)” value in series [5] worked out at 16%; in [6] it was 70%. Besides, in [7], the inhibition entry was “Active”. Besides, in series [8], the outcome was inactive. Besides, in series [9], the result was Active. The inhibition entry in series [10] is “inactive”.

The term inhibition in vivo denotes how much of the control response was suppressed.
